Measured values: ChEMBL document CHEMBL1150977, “A quantitative analysis of kinase inhibitor selectivity” (Nat Biotechnol, 2008)

Legend:
[1] = target: Tyrosine-protein kinase ABL1 (Homo sapiens, UniProt P00519, E255K)
[2] = target: Mitogen-activated protein kinase 3 (Homo sapiens, UniProt P27361)
[3] = target: Cyclin-dependent kinase 3 (Homo sapiens, UniProt Q00526)
Ephrin type-A receptor 2 = Ephrin type-A receptor 2 (Homo sapiens, UniProt P29317)
[4] = target: T1, Dual specificity mitogen-activated protein kinase kinase 6 (Homo sapiens, UniProt P52564)
T1 sequence (P52564 whole entry): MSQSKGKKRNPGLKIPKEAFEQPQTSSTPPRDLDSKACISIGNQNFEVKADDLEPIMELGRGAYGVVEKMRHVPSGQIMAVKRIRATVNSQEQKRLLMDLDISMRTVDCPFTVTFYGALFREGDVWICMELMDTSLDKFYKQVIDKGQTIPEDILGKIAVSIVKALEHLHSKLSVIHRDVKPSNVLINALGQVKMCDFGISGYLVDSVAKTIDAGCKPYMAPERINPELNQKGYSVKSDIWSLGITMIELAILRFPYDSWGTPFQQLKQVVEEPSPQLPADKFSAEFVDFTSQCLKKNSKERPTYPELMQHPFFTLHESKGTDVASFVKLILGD

[5] = target: Serine/threonine-protein kinase PAK 4 (Homo sapiens, UniProt O96013)
[6] = target: T2, Muscle, skeletal receptor tyrosine-protein kinase (Homo sapiens, UniProt O15146)
T2 sequence (O15146 whole entry): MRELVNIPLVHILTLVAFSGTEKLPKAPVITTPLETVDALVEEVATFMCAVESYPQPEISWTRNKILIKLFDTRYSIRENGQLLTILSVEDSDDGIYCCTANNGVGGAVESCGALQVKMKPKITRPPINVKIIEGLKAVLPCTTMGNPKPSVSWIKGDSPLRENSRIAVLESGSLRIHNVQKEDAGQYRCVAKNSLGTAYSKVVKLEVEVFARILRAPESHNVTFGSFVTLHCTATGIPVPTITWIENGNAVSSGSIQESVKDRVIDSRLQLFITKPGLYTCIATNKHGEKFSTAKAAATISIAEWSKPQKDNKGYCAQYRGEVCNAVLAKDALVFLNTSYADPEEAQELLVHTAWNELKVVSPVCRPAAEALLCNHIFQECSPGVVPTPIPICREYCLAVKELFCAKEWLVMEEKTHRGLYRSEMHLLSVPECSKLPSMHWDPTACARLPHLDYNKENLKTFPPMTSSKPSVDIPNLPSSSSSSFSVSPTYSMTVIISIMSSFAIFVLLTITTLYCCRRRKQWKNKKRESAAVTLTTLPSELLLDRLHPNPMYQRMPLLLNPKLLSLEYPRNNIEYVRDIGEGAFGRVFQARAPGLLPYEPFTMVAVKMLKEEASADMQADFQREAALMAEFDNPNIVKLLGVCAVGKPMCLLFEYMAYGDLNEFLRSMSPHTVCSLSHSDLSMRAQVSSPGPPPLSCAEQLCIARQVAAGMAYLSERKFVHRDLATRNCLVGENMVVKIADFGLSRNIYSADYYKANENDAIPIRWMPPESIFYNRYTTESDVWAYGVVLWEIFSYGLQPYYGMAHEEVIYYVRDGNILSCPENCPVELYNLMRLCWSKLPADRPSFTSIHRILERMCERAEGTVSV

[7] = target: Cyclin-dependent kinase 14 (Homo sapiens, UniProt O94921)
[8] = target: Tyrosine-protein kinase BTK (Homo sapiens, UniProt Q06187)
[9] = target: T3, Membrane-associated tyrosine- and threonine-specific cdc2-inhibitory kinase (Homo sapiens, UniProt Q99640)
T3 sequence (Q99640 whole entry): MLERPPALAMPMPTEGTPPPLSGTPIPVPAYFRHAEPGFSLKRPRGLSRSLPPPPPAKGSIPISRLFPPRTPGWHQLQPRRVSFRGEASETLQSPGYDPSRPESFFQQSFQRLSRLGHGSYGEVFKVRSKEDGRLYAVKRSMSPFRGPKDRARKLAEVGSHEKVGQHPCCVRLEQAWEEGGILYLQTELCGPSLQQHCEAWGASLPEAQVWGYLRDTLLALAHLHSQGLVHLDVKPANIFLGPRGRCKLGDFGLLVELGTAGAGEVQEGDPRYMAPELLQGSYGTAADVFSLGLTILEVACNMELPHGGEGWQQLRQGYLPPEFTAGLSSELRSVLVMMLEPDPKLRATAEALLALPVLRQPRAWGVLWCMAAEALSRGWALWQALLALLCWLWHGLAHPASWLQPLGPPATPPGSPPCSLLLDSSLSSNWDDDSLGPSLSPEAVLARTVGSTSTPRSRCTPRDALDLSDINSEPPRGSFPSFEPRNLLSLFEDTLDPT

[10] = target: Protein-tyrosine kinase 6 (Homo sapiens, UniProt Q13882)
[11] = target: Dual specificity mitogen-activated protein kinase kinase 1 (Homo sapiens, UniProt Q02750)
Aurora kinase A = target: T4, Aurora kinase A (Homo sapiens, UniProt O14965)
T4 sequence (O14965 whole entry): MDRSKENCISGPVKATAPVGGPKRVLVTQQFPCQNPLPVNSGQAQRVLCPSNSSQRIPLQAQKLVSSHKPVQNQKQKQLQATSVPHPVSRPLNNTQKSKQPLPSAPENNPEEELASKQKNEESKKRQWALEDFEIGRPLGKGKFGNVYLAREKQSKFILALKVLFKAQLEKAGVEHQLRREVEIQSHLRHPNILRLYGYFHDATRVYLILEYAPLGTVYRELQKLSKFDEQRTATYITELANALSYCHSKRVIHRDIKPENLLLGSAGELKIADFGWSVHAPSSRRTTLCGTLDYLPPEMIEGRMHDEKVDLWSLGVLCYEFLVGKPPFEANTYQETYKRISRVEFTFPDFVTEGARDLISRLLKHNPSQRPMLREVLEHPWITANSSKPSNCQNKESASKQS

[12] = target: Interferon-induced, double-stranded RNA-activated protein kinase (Homo sapiens, UniProt P19525)
[13] = target: Mitogen-activated protein kinase 6 (Homo sapiens, UniProt Q16659)
[14] = target: Tyrosine-protein kinase Blk (Homo sapiens, UniProt P51451)
[15] = target: Serine/threonine-protein kinase Nek7 (Homo sapiens, UniProt Q8TDX7)
[16] = target: Cyclin-dependent kinase 8 (Homo sapiens, UniProt P49336)

Chain of Serine/threonine-protein kinase Nek7 (Q8TDX7 whole entry): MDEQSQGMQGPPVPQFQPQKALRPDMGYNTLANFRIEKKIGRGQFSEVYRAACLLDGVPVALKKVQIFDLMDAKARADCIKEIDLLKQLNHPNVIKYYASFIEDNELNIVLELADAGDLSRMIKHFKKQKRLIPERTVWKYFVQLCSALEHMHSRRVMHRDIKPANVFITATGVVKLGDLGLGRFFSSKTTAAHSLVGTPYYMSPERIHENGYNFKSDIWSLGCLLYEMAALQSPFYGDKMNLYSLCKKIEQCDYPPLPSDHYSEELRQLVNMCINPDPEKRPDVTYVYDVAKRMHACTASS
Chain of Interferon-induced, double-stranded RNA-activated protein kinase (P19525 whole entry): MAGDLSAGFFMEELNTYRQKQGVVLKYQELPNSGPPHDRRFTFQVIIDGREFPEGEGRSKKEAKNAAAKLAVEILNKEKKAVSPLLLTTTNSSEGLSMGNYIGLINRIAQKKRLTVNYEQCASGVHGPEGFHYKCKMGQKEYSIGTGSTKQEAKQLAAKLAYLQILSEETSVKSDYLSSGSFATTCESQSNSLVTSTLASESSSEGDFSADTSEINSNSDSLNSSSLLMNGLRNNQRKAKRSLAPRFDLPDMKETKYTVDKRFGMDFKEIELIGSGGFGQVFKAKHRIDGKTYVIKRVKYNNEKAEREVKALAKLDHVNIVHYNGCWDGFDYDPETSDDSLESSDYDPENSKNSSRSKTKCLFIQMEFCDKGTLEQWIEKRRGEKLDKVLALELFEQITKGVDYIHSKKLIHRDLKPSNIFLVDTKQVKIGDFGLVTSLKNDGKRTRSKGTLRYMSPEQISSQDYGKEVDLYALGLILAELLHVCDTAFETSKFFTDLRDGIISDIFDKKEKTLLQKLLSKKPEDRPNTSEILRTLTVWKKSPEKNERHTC
Chain of Mitogen-activated protein kinase 3 (P27361 whole entry): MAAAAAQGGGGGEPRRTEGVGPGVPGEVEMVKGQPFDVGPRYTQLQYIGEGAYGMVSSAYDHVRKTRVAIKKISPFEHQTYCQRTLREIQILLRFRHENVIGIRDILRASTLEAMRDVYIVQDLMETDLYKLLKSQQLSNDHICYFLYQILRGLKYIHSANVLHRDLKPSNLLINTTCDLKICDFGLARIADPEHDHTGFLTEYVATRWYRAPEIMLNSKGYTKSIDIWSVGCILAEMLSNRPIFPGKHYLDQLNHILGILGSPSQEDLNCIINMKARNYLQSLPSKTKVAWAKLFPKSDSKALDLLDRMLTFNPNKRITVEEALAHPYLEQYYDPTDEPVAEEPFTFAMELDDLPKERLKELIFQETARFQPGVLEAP
Chain of Tyrosine-protein kinase ABL1 (P00519 whole entry E255K): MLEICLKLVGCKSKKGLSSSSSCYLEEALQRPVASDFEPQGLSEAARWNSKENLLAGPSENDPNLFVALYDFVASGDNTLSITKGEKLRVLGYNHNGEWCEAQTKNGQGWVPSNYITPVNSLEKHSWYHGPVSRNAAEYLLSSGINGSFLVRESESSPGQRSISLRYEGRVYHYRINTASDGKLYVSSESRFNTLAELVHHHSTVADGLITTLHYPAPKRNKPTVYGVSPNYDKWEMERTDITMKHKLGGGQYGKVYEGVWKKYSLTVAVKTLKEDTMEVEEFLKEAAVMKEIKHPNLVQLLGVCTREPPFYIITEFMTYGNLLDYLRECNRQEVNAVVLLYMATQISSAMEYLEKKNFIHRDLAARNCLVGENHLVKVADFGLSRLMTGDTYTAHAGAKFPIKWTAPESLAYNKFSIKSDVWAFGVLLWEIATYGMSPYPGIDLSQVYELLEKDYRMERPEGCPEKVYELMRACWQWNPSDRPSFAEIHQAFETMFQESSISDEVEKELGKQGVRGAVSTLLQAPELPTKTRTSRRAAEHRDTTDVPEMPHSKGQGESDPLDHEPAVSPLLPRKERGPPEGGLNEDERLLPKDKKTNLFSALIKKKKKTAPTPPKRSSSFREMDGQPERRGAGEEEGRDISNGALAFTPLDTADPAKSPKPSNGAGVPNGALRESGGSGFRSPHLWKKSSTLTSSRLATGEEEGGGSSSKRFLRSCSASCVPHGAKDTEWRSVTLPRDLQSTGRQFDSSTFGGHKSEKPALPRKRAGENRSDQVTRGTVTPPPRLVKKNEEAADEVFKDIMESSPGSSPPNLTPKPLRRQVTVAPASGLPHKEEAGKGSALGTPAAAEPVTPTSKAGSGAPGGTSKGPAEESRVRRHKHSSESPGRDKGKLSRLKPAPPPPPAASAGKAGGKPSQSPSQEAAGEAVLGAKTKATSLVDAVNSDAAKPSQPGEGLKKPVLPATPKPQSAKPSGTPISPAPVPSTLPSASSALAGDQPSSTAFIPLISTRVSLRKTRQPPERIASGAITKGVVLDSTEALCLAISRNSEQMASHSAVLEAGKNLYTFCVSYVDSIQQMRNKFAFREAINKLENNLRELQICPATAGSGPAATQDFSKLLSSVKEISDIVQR
Chain of Serine/threonine-protein kinase PAK 4 (O96013 whole entry): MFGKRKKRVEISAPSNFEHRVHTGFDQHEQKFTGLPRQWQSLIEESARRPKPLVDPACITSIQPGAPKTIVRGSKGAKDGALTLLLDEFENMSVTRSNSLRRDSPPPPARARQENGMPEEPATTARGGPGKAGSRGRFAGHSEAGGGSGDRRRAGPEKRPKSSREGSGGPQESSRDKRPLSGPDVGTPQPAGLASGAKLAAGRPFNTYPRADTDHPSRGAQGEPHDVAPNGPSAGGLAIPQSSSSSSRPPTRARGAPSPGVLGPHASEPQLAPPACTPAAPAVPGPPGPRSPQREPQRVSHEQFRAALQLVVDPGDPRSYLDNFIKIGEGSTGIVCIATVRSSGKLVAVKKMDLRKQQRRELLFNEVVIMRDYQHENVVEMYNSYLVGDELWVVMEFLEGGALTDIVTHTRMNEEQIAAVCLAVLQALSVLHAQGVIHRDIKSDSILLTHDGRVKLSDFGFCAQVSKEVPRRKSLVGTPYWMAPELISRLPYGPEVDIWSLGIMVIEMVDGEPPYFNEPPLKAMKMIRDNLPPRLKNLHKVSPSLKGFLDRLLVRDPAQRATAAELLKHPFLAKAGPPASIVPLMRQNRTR
Chain of Cyclin-dependent kinase 3 (Q00526 whole entry): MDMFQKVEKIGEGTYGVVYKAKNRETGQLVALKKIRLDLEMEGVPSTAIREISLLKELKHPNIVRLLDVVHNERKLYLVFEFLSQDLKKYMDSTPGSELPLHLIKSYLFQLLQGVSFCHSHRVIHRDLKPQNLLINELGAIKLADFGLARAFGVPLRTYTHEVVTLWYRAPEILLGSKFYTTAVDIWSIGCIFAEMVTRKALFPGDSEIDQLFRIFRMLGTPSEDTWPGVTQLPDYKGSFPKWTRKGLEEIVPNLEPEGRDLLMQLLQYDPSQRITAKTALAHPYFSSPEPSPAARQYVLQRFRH
Chain of Protein-tyrosine kinase 6 (Q13882 whole entry): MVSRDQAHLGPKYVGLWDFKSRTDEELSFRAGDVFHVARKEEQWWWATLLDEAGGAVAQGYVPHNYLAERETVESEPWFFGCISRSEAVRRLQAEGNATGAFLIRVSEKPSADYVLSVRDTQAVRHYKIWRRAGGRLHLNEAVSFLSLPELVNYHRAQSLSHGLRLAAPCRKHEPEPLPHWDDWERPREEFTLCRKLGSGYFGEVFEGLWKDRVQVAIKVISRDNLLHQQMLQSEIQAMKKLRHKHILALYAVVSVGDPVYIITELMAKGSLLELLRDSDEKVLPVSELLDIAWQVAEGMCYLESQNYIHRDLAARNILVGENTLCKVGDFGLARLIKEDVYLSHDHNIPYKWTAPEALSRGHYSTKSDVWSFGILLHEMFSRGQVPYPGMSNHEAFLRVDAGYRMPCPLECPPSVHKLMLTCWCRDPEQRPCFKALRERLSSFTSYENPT
Chain of Ephrin type-A receptor 2 (P29317 whole entry): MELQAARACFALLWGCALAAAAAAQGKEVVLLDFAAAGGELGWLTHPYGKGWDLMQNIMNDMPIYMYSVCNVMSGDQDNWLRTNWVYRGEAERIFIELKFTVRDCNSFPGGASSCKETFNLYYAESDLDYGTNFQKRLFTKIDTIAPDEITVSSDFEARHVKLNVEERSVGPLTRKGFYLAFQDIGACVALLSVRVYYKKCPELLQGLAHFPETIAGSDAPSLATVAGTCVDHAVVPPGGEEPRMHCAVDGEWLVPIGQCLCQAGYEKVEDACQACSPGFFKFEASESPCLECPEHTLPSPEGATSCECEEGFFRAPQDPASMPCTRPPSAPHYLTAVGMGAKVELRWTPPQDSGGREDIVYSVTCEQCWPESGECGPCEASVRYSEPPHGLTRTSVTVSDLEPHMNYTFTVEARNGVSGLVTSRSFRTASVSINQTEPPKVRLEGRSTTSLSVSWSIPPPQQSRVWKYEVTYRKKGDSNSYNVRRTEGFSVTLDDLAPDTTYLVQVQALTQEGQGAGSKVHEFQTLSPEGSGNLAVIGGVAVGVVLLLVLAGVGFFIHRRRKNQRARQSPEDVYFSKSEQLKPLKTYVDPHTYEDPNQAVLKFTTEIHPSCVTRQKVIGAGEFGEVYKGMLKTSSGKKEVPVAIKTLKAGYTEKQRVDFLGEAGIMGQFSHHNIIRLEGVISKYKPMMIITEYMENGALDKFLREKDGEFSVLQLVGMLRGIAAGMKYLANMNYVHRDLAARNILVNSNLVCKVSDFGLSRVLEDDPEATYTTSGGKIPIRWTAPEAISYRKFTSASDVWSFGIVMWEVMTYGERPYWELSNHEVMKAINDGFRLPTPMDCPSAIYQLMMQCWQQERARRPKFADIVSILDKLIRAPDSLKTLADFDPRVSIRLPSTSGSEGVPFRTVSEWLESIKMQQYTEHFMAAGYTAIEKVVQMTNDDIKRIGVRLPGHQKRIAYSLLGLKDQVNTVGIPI

Compound	Kd [1] [µM]	Kd [2] [µM]	Kd [3] [µM]	Kd (Ephrin type-A receptor 2) [µM]	Kd [4] [µM]	Kd [5] [µM]	Kd [6] [µM]	Kd [7] [µM]	Kd [8] [µM]	Kd [9] [µM]	Kd [10] [µM]	Kd [11] [µM]	Kd (Aurora kinase A) [µM]	Kd [12] [µM]	Kd [13] [µM]	Kd [14] [µM]	Kd [15] [µM]	Kd [16] [µM]
COCC(=O)NC/C=C/c1ccc2ncnc(Nc3ccc(Oc4ccc(C)nc4)c(C)c3)c2c1 [CP-724714]	> 10	> 10	> 10	> 10	> 10	> 10	> 10	> 10	> 10	> 10	> 10	> 10	> 10	> 10	> 10	> 10	> 10	
NC(=O)c1ccc(-c2nc(-c3ccc4c(c3)OCO4)c(-c3ccccn3)[nH]2)cc1 [SB-431542]	> 10	> 10	> 10	> 10	> 10	> 10	> 10	> 10	> 10	> 10	> 10	> 10	> 10	> 10	> 10	> 10	> 10	> 10
Nc1nc(Nc2ccc(S(N)(=O)=O)cc2)nn1C(=O)c1c(F)cccc1F [JNJ-7706621]				> 10			> 10	3.6		> 10	> 10					> 10	> 10	
CCOc1cc2ncc(C#N)c(Nc3ccc(F)c(Cl)c3)c2cc1NC(=O)/C=C/CN(C)C [PELITINIB]		> 10	> 10	> 10	> 10	> 10	> 10	> 10	4.9	2.9	> 10		> 10	1.9	> 10	0.078	> 10	> 10
CCN1CCN(Cc2ccc(NC(=O)Nc3ccc(Oc4cc(NC)ncn4)cc3)cc2C(F)(F)F)CC1 [AST-487]			0.082															
Oc1ccc(-c2nc(-c3ccncc3)c(-c3ccc(F)cc3)[nH]2)cc1 [SB-202190]	> 10	> 10	> 10	> 10	> 10	> 10	> 10	> 10	> 10	> 10	6.8	> 10	> 10	> 10	> 10	> 10	> 10	> 10
